Legend:
trans-dermal wounds = assay: wound healing of trans-dermal wounds in mice, topical application; format: in vivo; conditions: for % healing at day 1 post treatment / % healing at day 2 post treatment / % healing at day 3 post treatment / % healing at day 4 post treatment: topical 0.5 mg/ml (5 mg/kg), 1 application/day, 5 mm punch wounds; for speed of wound healing compared with Vehicle / 156A protein: topical 0.5 mg/ml, time course over 4 days
Protocol: The vehicle (Batch A) was administered by topical application at a standardized volume of 10 ml/kg for all applications. The peptides of the invention, the protein 156A or the peptides 2, 6 and 9 were administered by topical application at the concentration of 0.5 mg/ml in the vehicle. The protocols of treatment were as it follows: • Group 1: (Batch A, Vehicle): 1 topical application 10 minutes after wounding • Group 2: (Peptide 7, 0.5 mg/ml): 1 topical application 10 minutes after wounding • Group 3: (Peptide 10, 0.5 mg/ml): 1 topical application 10 minutes after wounding • Group 4: (Peptide 11, 0.5 mg/ml): 1 topical application 10 minutes after wounding • Group 5: (Peptide 7B, 0.5 mg/ml): 1 topical application 10 minutes after wounding. • Group 6: (Peptide 2, 0.5 mg/ml): 1 topical application 10 minutes after wounding. • Group 7: (Peptide 6, 0.5 mg/ml): 1 topical application 10 minutes after wounding. • Group 8: (Peptide 9, 0.5 mg/ml): 1 topical application 10 minutes after wounding. • Group 9: (Protein 156A, 0.5 mg/mL): 1 topical application 10 minutes after wounding.
Healthy female BALBC Swiss mice were anesthetized by IP injection of Ketamine-Xylazine (80 mg/kg-12 mg/kg; Ref. K-113, Sigma, France). Two trans-dermal wounds, each of 5 mm in width and about 1 to 2 mm in depth were realized in the right and the left flanks of each mouse using 5 mm punch.
At D1, and 10 min post-injury of the animals, the mice were randomized into 9 groups of 3 mice each.
All treatments were realized by topical application at the frequency of 1 topical application/day, for 4 days. Animals of group 1 were treated with the vehicle solution (Batch A). Animals of groups 2 to 9 were treated with the indicated peptide or with the 156A protein at a dose of 5 mg/kg.

[1] = tested on: human microvascular endothelial cells (HMEC); assay: in vitro angiogenesis assay (Matrigel, endothelial tube formation); format: cell-based; conditions: for in vitro angiogenesis-inducing activity: 400 μg/ml final concentration, images at 6 h post incubation; for classification of in vitro angiogenesis inducing activity: 400 μg/ml, rank order among peptides
Protocol: Angiogenesis of human microvascular endothelial cells (HMEC) was induced in vitro using a Matrigel assay described by Grant et α1 (1989, Cell, 1989; 58:933). This method is based on the differentiation of endothelial cells to form capillary structures on a Matrigel Matrix. Matrigel is prepared the Engelbreth-Holm-Swarm (EHS) mouse tumor, which represents a complex mixture of basement membrane proteins including type IV collagen, entactin, proteo-heparan sulfate and other growth factors.
Briefly, 250 μl of Matrigel were transferred to each well of a 24-well culture plate and incubated at 37° C. for 30 min to allow for the matrix solution to solidify. HMEC grown in complete growth medium EGM-2MV were harvested by trypsin, suspended in the same growth medium and 500 μl containing 70 000 cells were added on top of the solidified Matrigel in each well and in the presence or absence of protein. Cells were maintained in a humidified atmosphere air containing 5% CO2 at 37° C. for 18-24 hrs. Endothelial tube formation was observed and photographed under an inverted light microscope.
The designed small peptides 7 (SEQ ID NO: 1), 10 (SEQ ID NO: 3), and 11 (SEQ ID NO: 4) were synthesized and tested for their in vitro angiogenesis-inducing activities (as described in Methods here above).
The results of the in vitro angiogenesis assay were presented in FIG. 1, using HMEC and 400 μg/ml final concentration of each peptide. Images were taken at 6 h post incubation.

VEGFA mRNA = assay: VEGFA expression by real time quantitative PCR in HMEC; format: cell-based, human; conditions: 400 μg/ml, 6 h, QPCR
Protocol: After exposure to the indicated concentrations of peptide 7 or peptide 10 issued from the recombinant protein GS-156A or vehicle for 24 h, HMEC (5×10^5 cells/ml), total mRNA were isolated using NucleoSpin RNA II kit. RNA yields and purity were assessed by spectrophotometric analysis. The real-time RT-PCR was performed as previously described (Voghel et al., 2008). […] The real-time PCR reactions were carried out with the DNA Engine OPTICON 2 continuous fluorescence detector (MJ Research, Waltham, Mass., U.S.A.). The results were quantified using the equation: CopyTF:CopyGAPDH=2C(t)GAPDH−C(t)TF. All PCR products were analyzed by electrophoresis on a 1.5% agarose gel, visualized with ethidium bromide, and analyzed using the Genesnap 6.00.26 software (Syngene, Cambridge, U.K.). […]
The influence of peptide 7 and peptide 10 on VEGFA expression was investigated. For that, HMEC were incubated with either peptide 7 (400 μg/ml final concentration), or peptide 10 (400 μg/ml final concentration) for 6 h, followed by measuring the expression of VEGFA by real time quantitative PCR (QPCR).

VEGFA protein = VEGFA protein by sandwich ELISA in HMEC culture medium; format: cell-based, human
Protocol: Serum-deprived HMEC were incubated with different concentrations of peptide 7 or peptide 10 or vehicle […]. After 3 washes with ice-cold PBS, cells were suspended with the protein extraction buffer (PEB) (20 mM Tris-HCl pH 7.5, 150 mM NaCl, 1 mM EDTA, 1 mM EGTA, 1% Triton, 25 mM sodium pyrophosphate, 1 mM β-glycero-phosphate, 1 mM Na3Vo4, 1 μg/ml leupeptine, 1 μM PMSF). The protein content was measured by Bradford. VEGFA concentration in the culture medium or in the extracts was determined by human VEGFA Sandwich ELISA kit (Cell Signaling technology) according to the manufacturer's instructions.

MAPK (Erk1 and 2) = assay: activation status of MAPK (pErk1/2) by western-blot in HMEC; format: cell-based, human; conditions: immunoblot pErk1/2
Protocol: The activation status of MAPK was determined by western-blot using an anti-activated MAPK (pErk1/2) antibody, and anti-GAPDH mAb as internal standard.
We have also investigated the status of the mitogen activated protein kinase (MAPK), as it is well established that it represents another cascade of intracellular signaling could be implicated in the regulation of VEGF expression.

[2] = tested on: trans-dermal wounds in diabetic mice; assay: wound healing in diabetic mice, subcutaneous injection beneath the wound; format: in vivo, ob/ob C57BL6/J mice; conditions: 2 mg/ml or 5 mg/ml, sb injection 200 μl/day for 4 days, 8 mm punch wounds
Protocol: Diabetic female ob/ob C57BL6/J mice were anesthetized by IP injection of Ketamine-Xylazine (80 mg/kg-12 mg/kg; Ref. K-113, Sigma, France). Two trans-dermal wounds, each of 8 mm in width and about 1 to 2 mm in depth were realized in the right flank of each mouse using 8 mm punch.
At D1, and 10 min post-injury of the animals, the mice were randomized into 3 groups of 5 mice each.
All treatments were realized by subcutaneous (sb) injections beneath the wounded area at the frequency of 1 sb injection/day, for 4 days. Animals of group 1 were injected with the vehicle solution (Batch A; 200 μl/injection, beneath the wounded area). Animals of groups 2 were sb injected with P7 solution in vehicle (2 mg of P7/ml of vehicle) (200 μl/injection; 16 mg/kg; beneath the wounded area). Animals of groups 3 were sb injected with P7 solution in vehicle (5 mg of P7/ml of vehicle) (200 μl/injection; 40 mg/kg; beneath the wounded area).

Protein Kinase B (Akt) = assay: activation status of protein kinase B (pAkt) by western-blot in HMEC; format: cell-based, human; conditions: 400 μg/ml, 10 min and 30 min post incubation, immunoblot
Protocol: The activation status of pAkt was determined by western-blot using an anti-phosphoserine 473 pAkt antibody, and anti-GAPDH mAb as internal standard.
The status of Akt in the HMEC following incubation with either peptide 7 or peptide 10 was investigated.

Substance	% healing at day 1 post treatment (trans-dermal wounds) [%]	% healing at day 2 post treatment (trans-dermal wounds) [%]	% healing at day 3 post treatment (trans-dermal wounds) [%]	% healing at day 4 post treatment (trans-dermal wounds) [%]	speed of wound healing compared with Vehicle / 156A protein (trans-dermal wounds)	in vitro angiogenesis-inducing activity [1]	classification of in vitro angiogenesis inducing activity [1]	VEGFA mRNA higher than Control (no peptide) (VEGFA mRNA)	increases of VEGFA-biosynthesis and excretion (VEGFA protein; 400 μg/ml)	increase in VEGF protein within the culture medium (peak) (VEGFA protein; 400 μg/ml of peptide, p<0.001)	level of activation of Erk1 and 2 (MAPK) relative to Control (MAPK (Erk1 and 2))	healing of the wounds in diabetic mice compared to control [2]	level of activated Akt relative to Control (Protein Kinase B (Akt))
ELDLQASL [Peptide 7B, fragment of the protein 156A, chemically synthesized]	33.2	56.9	63.7	76.6	healed faster than the wounds treated with Vehicle or with the 156A protein	–	–	–	–	–	–	–	–
FQRLLKQ [Peptide 9, comparative fragment of the 156A protein without enhanced efficiency]	–	–	–	–	healed slower than the wounds treated with Vehicle	–	–	–	–	–	–	–	–
QSQKVPRQVQS [Peptide 11, fragment of the protein 156A, chemically synthesized]	41.9	52.1	58.4	64.4	healed faster than the wounds treated with Vehicle or with the 156A protein	strong in vitro angiogenesis-inducing activity	peptide 7>peptide 10>peptide 11	–	–	–	–	–	–
RLNRSDSDSSTLAKK [Peptide 2, comparative fragment of the 156A protein without enhanced efficiency]	–	–	–	–	healed slower than the wounds treated with Vehicle	–	–	–	–	–	–	–	–
RSLRVKRTVCQSVLR [Peptide 6, comparative fragment of the 156A protein without enhanced efficiency]	–	–	–	–	healed slower than the wounds treated with Vehicle	–	–	–	–	–	–	–	–
TQECPVRTSLDRELDLQASL [Peptide 7, fragment of the protein 156A, chemically synthesized]	52.8	60.1	65.6	82.9	healed faster than the wounds treated with Vehicle or with the 156A protein	strong in vitro angiogenesis-inducing activity	peptide 7>peptide 10>peptide 11	about 170%	about 2 folds	about 97%	not significant variations in level of activation of Erk1 and 2	strong healing of the wounds	much higher level of activated Akt
VSKDVCRL [Peptide 10, fragment of the protein 156A, chemically synthesized]	42.8	61.3	65.6	78.9	healed faster than the wounds treated with Vehicle or with the 156A protein	strong in vitro angiogenesis-inducing activity	peptide 7>peptide 10>peptide 11	about 60%	–	–	not significant variations in level of activation of Erk1 and 2	–	much higher level of activated Akt
